This test addresses T1, HIV-1 protease (Human immunodeficiency virus type 1 group M subtype B, UniProt P04585).
T1 construct: The protease (or proteinase), consisting of only 99 amino acids, is among the smallest enzymes known
Nature of the test: In vitro HIV protease inhibitory assay (HIV Protease FITC Assay). The note with it: for inhibition at 0.123 µM: HIV-1 Dose 0.123 uM; for inhibition at 0.123 µM / inhibition at 0.37 µM / inhibition at 1.1 µM / inhibition at 3.3 µM / inhibition at 10 µM / inhibition at 30 µM / inhibition at 0.41 µM / inhibition at 1.23 µM / inhibition at 3.7 µM / inhibition at 11 µM / inhibition at 33 µM / inhibition at 100 µM / inhibition at 1 µM: read-out: HIV-1 Protease % Inhib; for inhibition at 0.37 µM: HIV-1 Dose 0.370 uM; for inhibition at 1.1 µM: HIV-1 Dose 1.100 uM; for inhibition at 3.3 µM: HIV-1 Dose 3.300 uM; for inhibition at 10 µM: HIV-1 Dose 10.000 uM; for inhibition at 30 µM: HIV-1 Dose 30.000 uM; for Ki: read-out: HIV-1 FITC Ki; for inhibition at 0.41 µM: HIV-1 Dose 0.410 uM; for inhibition at 1.23 µM: HIV-1 Dose 1.230 uM; for inhibition at 3.7 µM: HIV-1 Dose 3.700 uM; for inhibition at 11 µM: HIV-1 Dose 11.000 uM; for inhibition at 33 µM: HIV-1 Dose 33.000 uM; for inhibition at 1 µM: HIV-1 Dose 1.000 uM. Format: biochemical. Summed up: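 Percent inhibition was read as fluorescence after avidin-bead capture and filtration separated FITC cleavage product from biotinylated substrate. Enzyme and substrate reacted 1 h, RT, dark, at pH 5.5 (0.1 M sodium acetate, 1.0 M NaCl, 0.05% NP-40).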

Here are results for 19 compounds from patent publication EP1203770A1 (priority 1992, dated 1994).

Take `O=c1oc(CCC(F)(F)F)cc(O)c1C(c1ccccc1)C1CC1` (centres unmarked) [Example 139, 3-(Cyclopropylphenylmethyl)-4-hydroxy-6-(3,3,3-trifluoropropyl)-2H-pyran-2-one]: the inhibition at 0.123 µM is below 10%, the inhibition at 0.37 µM was below 10%, the inhibition at 1.1 µM was below 10% and the inhibition at 3.3 µM stood at 27.9%. Also, the inhibition at 10 µM came out at 58% and the inhibition at 30 µM was 67.1%.

Turning to `O=c1oc(C(CC2CC2)CC2CCCOC2)cc(O)c1C(c1ccccc1)C1CC1` (stereo not drawn) [Example 243, 3-(α-Cyclopropylbenzyl)-6-[1-cyclopropylmethyl-2-(tetrahydropyran-3-yl)ethyl]-4-hydroxy-2H-pyran-2-one], the inhibition at 0.123 µM was below 10%, the inhibition at 0.37 µM turned out to be 36.2%, the inhibition at 1.1 µM came to 70.5% and the inhibition at 3.3 µM stood at 94.7%. The inhibition at 10 µM came out at 105%; the inhibition at 30 µM was found to be 102%; the Ki (as a rule, the equilibrium dissociation constant of an inhibitor or competing ligand from its target) came to 69 nM.

Turning to `O=c1oc(CCc2ccccn2)cc(O)c1C(c1ccccc1)C1CC1` (centres unmarked) [Example 49, 3-(Cyclopropyl-phenyl-methyl)-4-hydroxy-6-(2-pyridin-2-yl-ethyl)-pyran-2-one], the inhibition at 0.41 µM is below 10%, the inhibition at 1.23 µM was 24.6%, the inhibition at 3.7 µM came out at 52.3% and the inhibition at 11 µM amounted to 80%. Moreover, the inhibition at 33 µM stood at 93.7% and the Ki came to 425 nM. Moreover, the inhibition at 100 µM (HIV-1 Dose 100.000 uM) is 98.3%.

Take `CCC(Cc1ccccc1)c1cc(O)c(C(c2cccc(NS(=O)(=O)c3cc(Cl)ccc3Cl)c2)C2CC2)c(=O)o1` (stereo not drawn) [Example 182, 3-(α-Cyclopropyl-meta-(2,5-dichlorophenylsulfonylamino)benzyl)-6-(α-ethylphenethyl)-4-hydroxy-2H-pyran-2-one]: the inhibition at 0.123 µM was below 10%, the inhibition at 0.37 µM was found to be 15%, the inhibition at 1.1 µM was found to be 45.7% and the inhibition at 3.3 µM came to 71.9%. In addition, the inhibition at 10 µM worked out at 94.9% and the inhibition at 30 µM amounted to 96.5%.

On to `C=CC(C1=C(O)CC(CCCC)(Cc2ccccc2)OC1=O)c1ccccc1` (centres unmarked) [Example 219, 2H-Pyran-2-one, 6-butyl-5,6-dihydro-4-hydroxy-6-phenylmethyl-3-(1-phenyl-2-propenyl)-], for which the inhibition at 0.123 µM is below 10%, the inhibition at 0.37 µM is below 10%, the inhibition at 1.1 µM was 35.3% and the inhibition at 3.3 µM was determined as 65.6%. Also, the inhibition at 10 µM stood at 79.7% and the inhibition at 30 µM is 90.2%.

For the compound `CC(C)CC1(CCc2ccccc2)CC(O)=C(C(/C=C/c2ccccc2)c2ccccc2)C(=O)O1` (centres unmarked) [Example 210, 2H-Pyran-2-one, 3-(1,3-diphenyl-2-propenyl)-5.6-dihydro-4-hydroxy-6-(2-methylpropyl)-6-(2-phenylethyl)-], the inhibition at 0.123 µM is below 10%, the inhibition at 0.37 µM is below 10%, the inhibition at 1.1 µM amounted to 37.5% and the inhibition at 3.3 µM came to 61%. Also, the inhibition at 10 µM was 75%, the inhibition at 30 µM was determined as 86% and the Ki was found to be 78 nM.

For the compound `CCC(CC)c1cc(O)c(C(CC)c2ccccc2)c(=O)o1` (centres unmarked) [Example 14, 6-(1'-Ethyl-propyl)-4-hydroxy-3-(1'-phenyl-propyl)-2-pyrone], the IC50 (in general, the midpoint of a concentration-inhibition curve) is 2200 nM; the inhibition at 1 µM was found to be 40.2%; the inhibition at 10 µM stood at 90.2%. Further, under “HIV-1 Dose 100.000 uM”, the inhibition at 100 µM came to 105%.

Consider `CCCC1(Cc2ccccc2)CC(O)=C(C(C=Cc2ccccc2)c2ccccc2)C(=O)O1` (centres unmarked) [Example 176, 3-(1,3-Diphenyl-2-propenyl)-5,6-dihydro-4-hydroxy-6-(phenylmethyl)-6-propyl-2H-pyran-2-one], for which the inhibition at 0.123 µM is below 10%, the inhibition at 0.37 µM is below 10%, the inhibition at 1.1 µM was found to be 28.9% and the inhibition at 3.3 µM was found to be 62.3%. In addition, the inhibition at 10 µM came out at 88.7% and the inhibition at 30 µM turned out to be 101%.

Turning to `CCC(CC1CC1)c1cc(O)c(C(c2ccccc2)C2CC2)c(=O)o1` (centres unmarked) [Example 90, 6-(1-Cyclopropylmethyl-propyl)-3-(cyclopropyl-phenyl-methyl)-4-hydroxy-pyran-2-one], the inhibition at 1 µM came to 61.2% and the inhibition at 10 µM was found to be 95.1%. Further, under “HIV-1 Dose 100.000 uM”, the “HIV-1 Protease % Inhib” value is reported as 96% and the inhibition at 100 µM was 95.9%.

Take `CCC(Cc1ccccc1)c1cc(O)c(C(c2cccc(NC(=O)NCc3ccccc3)c2)C2CC2)c(=O)o1` (stereo not drawn) [Example 213, 3-(α-Cyclopropyl-meta-[(benzylaminocarbonyl)amino]benzyl)-6-(α-ethylphenethyl)-4-hydroxy-2H-pyran-2-one]: the inhibition at 0.123 µM was below 10%, the inhibition at 0.37 µM came to 12.1%, the inhibition at 1.1 µM came to 30% and the inhibition at 3.3 µM amounted to 55.4%. In addition, the inhibition at 10 µM was determined as 83.7% and the inhibition at 30 µM was 85.8%.

With `C=CCCc1cc(O)c(C(c2ccccc2)C2CC2)c(=O)o1` (centres unmarked) [Example 98, 6-But-3-enyl-3-(cyclopropyl-phenyl-methyl)-4-hydroxy-pyran-2-one], the inhibition at 1 µM was 50.8% and the inhibition at 10 µM was 93.5%. In addition, the inhibition at 100 µM (HIV-1 Dose 100.000 uM) came out at 110%.

With `CCC(Cc1ccccc1)c1cc(O)c(C(c2cccc(NS(=O)(=O)CC)c2)C2CC2)c(=O)o1` (centres unmarked) [Example 247], the inhibition at 0.123 µM was 14.1%, the inhibition at 0.37 µM was 47%, the inhibition at 1.1 µM is 73.1% and the inhibition at 3.3 µM turned out to be 86.7%. Besides, the inhibition at 10 µM was 96.1%, the inhibition at 30 µM stood at 97% and the Ki turned out to be 30.4 nM.

As to `CCC(Cc1ccco1)c1cc(O)c(C(c2ccccc2)C2CC2)c(=O)o1` (centres unmarked) [Example 59, 3-(Cyclopropyl-phenyl-methyl)-6-(1-furan-2-ylmethyl-propyl)4-hydroxy-pyran-2-one], the inhibition at 0.41 µM stood at 64.2%, the inhibition at 1.23 µM stood at 81.2%, the inhibition at 3.7 µM came to 104% and the inhibition at 11 µM worked out at 102%. Moreover, the inhibition at 33 µM came to 101% and the Ki is 58 nM. Besides, where the note is “HIV-1 Dose 100.000 uM”, the inhibition at 100 µM amounted to 105%.

Turning to `CCC(Cc1cccnc1)c1cc(O)c(C(c2ccccc2)C2CC2)c(=O)o1` (centres unmarked) [Example 70, 3-(Cyclopropyl-phenyl-methyl)-4-hydroxy-6-(1-pyridin-3-ylmethyl-propyl)-pyran-2-one], the inhibition at 0.123 µM is below 10%, the inhibition at 0.37 µM came to 38.3%, the inhibition at 1.1 µM worked out at 67.3% and the inhibition at 3.3 µM stood at 88.9%. Besides, the inhibition at 10 µM is 92.8%, the inhibition at 30 µM stood at 98.6% and the Ki was found to be 64 nM.

`CCC(c1cc(O)c(C(c2ccccc2)C2CC2)c(=O)o1)C(O)c1ccccc1` (stereo not drawn) [Example 146, 3-(α-cyclopropylbenzyl)-4-hydroxy-6-(α-ethyl-β-hydroxyphenethyl)-2H-pyran-2-one]: the inhibition at 0.123 µM turned out to be 36.4%, the inhibition at 0.37 µM was determined as 73.6%, the inhibition at 1.1 µM was 82.7% and the inhibition at 3.3 µM was determined as 87.7%. The inhibition at 10 µM was found to be 91.2% and the inhibition at 30 µM amounted to 95.2%.

As for `CCC(CCCCl)c1cc(O)c(C(c2ccccc2)C2CC2)c(=O)o1` (centres unmarked) [Example 64, 6-(4-Chloro-1-ethyl-butyl)-3-(cyclopropyl-phenyl-methyl)-4-hydroxy-pyran-2-one], the inhibition at 0.123 µM amounted to 13.7%, the inhibition at 0.37 µM amounted to 53.9%, the inhibition at 1.1 µM worked out at 87.7% and the inhibition at 3.3 µM was 103%. The inhibition at 10 µM worked out at 109%, the inhibition at 30 µM came to 119% and the Ki is 44 nM.

With `Cc1noc(C)c1CCc1cc(O)c(C(c2ccccc2)C2CC2)c(=O)o1` (centres unmarked) [Example 43, 3-(Cyclopropyl-phenyl-methyl)-6-(2-(3,5-dimethyl-isoxazol-4-yl)-ethyl)-4-hydroxy-pyran-2-one], the inhibition at 1 µM was 44.6%, the inhibition at 10 µM turned out to be 89.4% and the Ki came to 460 nM. For the same compound, the inhibition at 100 µM (HIV-1 Dose 100.000 uM) stood at 97.3%.

With `CCC(CCc1ccccc1)c1cc(O)c(C(c2ccccc2)C2CC2)c(=O)o1` (centres unmarked) [Example 99, 3-(Cyclopropyl-phenyl-methyl)-6-(1-ethyl-3-phenyl-propyl)-4-hydroxy-pyran-2-one], the inhibition at 1 µM is 71.5% and the inhibition at 10 µM was 99.6%. For the same compound, the inhibition at 100 µM (HIV-1 Dose 100.000 uM) is 90.7%.

Turning to `CCC(Cc1ccccc1)c1cc(O)c(C(c2cccc(NS(=O)(=O)c3ccccc3)c2)C2CC2)c(=O)o1` (stereo not drawn) [Example 178, 3-(α-Cyclopropyl-meta-(phenylsulfonylamino)benzyl)-6-(α-ethylphenethyl)-4-hydroxy-2H-pyran-2-one], the inhibition at 0.123 µM was 21.6%, the inhibition at 0.37 µM amounted to 61.9%, the inhibition at 1.1 µM stood at 83.1% and the inhibition at 3.3 µM was 95.5%. The inhibition at 10 µM is 104%, the inhibition at 30 µM stood at 107% and the Ki is 17.4 nM.
